The values below come from ChEMBL document CHEMBL1146694, “Novel targeting strategy based on multimeric ligands for drug delivery and molecular imaging: homooligomers of alpha-MSH” (Bioorg Med Chem Lett, 2004).

Molecules are shown by their SMILES.

As a reminder, the Hill coefficient is the slope factor of the fitted curve.

Data set [1] in a line: Hill coefficient was determined. In kind it is ADME.
The next data set has as its target Melanocortin receptor 4 (Homo sapiens, UniProt P32245). Put plainly: Binding affinity towards human melanocortin 4 receptor was determined using [125I]-NDP-alpha-MSH as radioligand transfected in HEK293 human embryonic kidney cells. In kind it is cell-based. To be noted: read-out: EC50.

Sequence of Melanocortin receptor 4 (P32245 whole entry): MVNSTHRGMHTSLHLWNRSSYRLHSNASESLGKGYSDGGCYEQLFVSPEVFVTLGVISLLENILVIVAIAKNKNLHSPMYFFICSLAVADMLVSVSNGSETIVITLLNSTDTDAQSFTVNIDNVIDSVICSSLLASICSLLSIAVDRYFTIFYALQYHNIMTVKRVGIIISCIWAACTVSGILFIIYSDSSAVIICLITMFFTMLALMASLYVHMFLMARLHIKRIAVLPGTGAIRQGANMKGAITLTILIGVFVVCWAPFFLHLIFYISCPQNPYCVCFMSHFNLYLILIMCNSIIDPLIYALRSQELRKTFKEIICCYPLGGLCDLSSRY

On to `CC(=O)N[C@@H](Cc1c[nH]cn1)C(=O)N[C@H](Cc1ccccc1)C(=O)N[C@@H](CCCN=C(N)N)C(=O)N[C@@H](Cc1c[nH]c2ccccc12)C(=O)NCCC(=O)NCC(=O)NCCC(=O)NCC(=O)NCCC(=O)NCC(=O)NCCC(=O)N[C@@H](Cc1c[nH]cn1)C(=O)N[C@H](Cc1ccccc1)C(=O)N[C@@H](CCCN=C(N)N)C(=O)N[C@@H](Cc1c[nH]c2ccccc12)C(N)=O`, for which the Hill coefficient in data set [1] is listed as 0.88. Moreover, the binding affinity (radioligand displacement) on Melanocortin receptor 4 stood at 571 nM.
In data set [1], `CC(=O)N[C@@H](Cc1c[nH]cn1)C(=O)N[C@H](Cc1ccccc1)C(=O)N[C@@H](CCCN=C(N)N)C(=O)N[C@@H](Cc1c[nH]c2ccccc12)C(=O)Nc1ccc(C(=O)Nc2ccc(C(=O)N[C@@H](Cc3c[nH]cn3)C(=O)N[C@H](Cc3ccccc3)C(=O)N[C@@H](CCCN=C(N)N)C(=O)N[C@@H](Cc3c[nH]c4ccccc34)C(N)=O)cc2)cc1` displayed a Hill coefficient of 1.12. The binding affinity (radioligand displacement) on Melanocortin receptor 4 came to 123 nM.
For `CC(=O)N[C@@H](Cc1c[nH]cn1)C(=O)N[C@H](Cc1ccccc1)C(=O)N[C@@H](CCCN=C(N)N)C(=O)N[C@@H](Cc1c[nH]c2ccccc12)C(=O)N1CCC[C@H]1C(=O)NCC(=O)N1CCC[C@H]1C(=O)N[C@@H](Cc1c[nH]cn1)C(=O)N[C@H](Cc1ccccc1)C(=O)N[C@@H](CCCN=C(N)N)C(=O)N[C@@H](Cc1c[nH]c2ccccc12)C(N)=O` the same measures were 0.84 and 14 nM.
The corresponding values for `CC(=O)N[C@@H](Cc1c[nH]cn1)C(=O)N[C@H](Cc1ccccc1)C(=O)N[C@@H](CCCN=C(N)N)C(=O)N[C@@H](Cc1c[nH]c2ccccc12)C(=O)Nc1ccc(C(=O)N[C@@H](Cc2c[nH]cn2)C(=O)N[C@H](Cc2ccccc2)C(=O)N[C@@H](CCCN=C(N)N)C(=O)N[C@@H](Cc2c[nH]c3ccccc23)C(N)=O)cc1` are 1.05 and 38 nM.
The corresponding values for `CC(=O)N[C@@H](Cc1c[nH]cn1)C(=O)N[C@H](Cc1ccccc1)C(=O)N[C@@H](CCCN=C(N)N)C(=O)N[C@@H](Cc1c[nH]c2ccccc12)C(=O)N[C@@H](Cc1c[nH]cn1)C(=O)N[C@H](Cc1ccccc1)C(=O)N[C@@H](CCCN=C(N)N)C(=O)N[C@@H](Cc1c[nH]c2ccccc12)C(N)=O` are 0.9 and 264 nM.
With `CC(=O)N[C@@H](Cc1c[nH]cn1)C(=O)N[C@H](Cc1ccccc1)C(=O)N[C@@H](CCCN=C(N)N)C(=O)N[C@@H](Cc1c[nH]c2ccccc12)C(=O)NCCC(=O)NCC(=O)NCCC(=O)NCC(=O)NCCC(=O)N[C@@H](Cc1c[nH]cn1)C(=O)N[C@H](Cc1ccccc1)C(=O)N[C@@H](CCCN=C(N)N)C(=O)N[C@@H](Cc1c[nH]c2ccccc12)C(N)=O`, the Hill coefficient in data set [1] is on record as 1.09. Further, the binding affinity (radioligand displacement) on Melanocortin receptor 4 came to 231 nM.
Regarding `CCCC[C@H](NC(C)=O)C(=O)N[C@@H](CCC(=O)O)C(=O)N[C@@H](Cc1cnc[nH]1)C(=O)N[C@H](Cc1ccccc1)C(=O)N[C@@H](CCCNC(=N)N)C(=O)N[C@@H](Cc1c[nH]c2ccccc12)C(=O)NCCC(=O)NCC(=O)NCCC(=O)N[C@@H](CCCC)C(=O)N[C@@H](CCC(=O)O)C(=O)N[C@@H](Cc1cnc[nH]1)C(=O)N[C@H](Cc1ccccc1)C(=O)N[C@@H](CCCNC(=N)N)C(=O)N[C@@H](Cc1c[nH]c2ccccc12)C(N)=O`, the Hill coefficient in data set [1] turned out to be 0.91. Moreover, the binding affinity (radioligand displacement) at Melanocortin receptor 4 was 7 nM.
Take `CC(=O)N[C@@H](Cc1cnc[nH]1)C(=O)N[C@H](Cc1ccccc1)C(=O)N[C@@H](CCCNC(=N)N)C(=O)N[C@@H](Cc1c[nH]c2ccccc12)C(=O)NCCC(=O)NCC(=O)NCCC(=O)N[C@@H](Cc1cnc[nH]1)C(=O)N[C@H](Cc1ccccc1)C(=O)N[C@@H](CCCNC(=N)N)C(=O)N[C@@H](Cc1c[nH]c2ccccc12)C(N)=O`: the Hill coefficient in data set [1] came to 0.99. Besides, on Melanocortin receptor 4, the binding affinity (radioligand displacement) came out at 143 nM.
Turning to `CC(=O)N[C@@H](Cc1c[nH]cn1)C(=O)N[C@H](Cc1ccccc1)C(=O)N[C@@H](CCCN=C(N)N)C(=O)N[C@@H](Cc1c[nH]c2ccccc12)C(=O)NCCC(=O)N[C@@H](Cc1c[nH]cn1)C(=O)N[C@H](Cc1ccccc1)C(=O)N[C@@H](CCCN=C(N)N)C(=O)N[C@@H](Cc1c[nH]c2ccccc12)C(N)=O`, in data set [1], the Hill coefficient was 1.39. The binding affinity (radioligand displacement) at Melanocortin receptor 4 amounted to 119 nM.
Molecule `CC(=O)N[C@@H](Cc1c[nH]cn1)C(=O)N[C@H](Cc1ccccc1)C(=O)N[C@@H](CCCN=C(N)N)C(=O)N[C@@H](Cc1c[nH]c2ccccc12)C(=O)NCCOCCOCCNC(=O)CCC(=O)N[C@@H](Cc1c[nH]cn1)C(=O)N[C@H](Cc1ccccc1)C(=O)N[C@@H](CCCN=C(N)N)C(=O)N[C@@H](Cc1c[nH]c2ccccc12)C(N)=O` came in with a Hill coefficient in data set [1] of 1.1. Besides, on Melanocortin receptor 4, the binding affinity (radioligand displacement) was 234 nM.
`CC(=O)N[C@@H](Cc1cnc[nH]1)C(=O)N[C@H](Cc1ccccc1)C(=O)N[C@@H](CCCNC(=N)N)C(=O)N[C@@H](Cc1c[nH]c2ccccc12)C(=O)Nc1ccc(C(=O)Nc2ccc(C(=O)Nc3ccc(C(=O)N[C@@H](Cc4cnc[nH]4)C(=O)N[C@H](Cc4ccccc4)C(=O)N[C@@H](CCCNC(=N)N)C(=O)N[C@@H](Cc4c[nH]c5ccccc45)C(N)=O)cc3)cc2)cc1` yielded a Hill coefficient in data set [1] of 1.05. Further, the binding affinity (radioligand displacement) on Melanocortin receptor 4 worked out at 164 nM.
Consider `CCCC[C@H](NC(C)=O)C(=O)N[C@@H](CCC(=O)O)C(=O)N[C@@H](Cc1c[nH]cn1)C(=O)N[C@H](Cc1ccccc1)C(=O)N[C@@H](CCCN=C(N)N)C(=O)N[C@@H](Cc1c[nH]c2ccccc12)C(=O)NCCOCCOCCNC(=O)CCC(=O)N[C@@H](CCCC)C(=O)N[C@@H](CCC(=O)O)C(=O)N[C@@H](Cc1c[nH]cn1)C(=O)N[C@H](Cc1ccccc1)C(=O)N[C@@H](CCCN=C(N)N)C(=O)N[C@@H](Cc1c[nH]c2ccccc12)C(N)=O`, for which the Hill coefficient in data set [1] was found to be 1.23. For the same molecule, the binding affinity (radioligand displacement) at Melanocortin receptor 4 was found to be 9 nM.
Molecule `CC(=O)N[C@@H](Cc1c[nH]cn1)C(=O)N[C@H](Cc1ccccc1)C(=O)N[C@@H](CCCN=C(N)N)C(=O)N[C@@H](Cc1c[nH]c2ccccc12)C(=O)NCCCC[C@H](NC(=O)CCNC(=O)CNC(=O)CCNC(=O)[C@H](Cc1c[nH]c2ccccc12)NC(=O)[C@H](CCCN=C(N)N)NC(=O)[C@@H](Cc1ccccc1)NC(=O)[C@H](Cc1c[nH]cn1)NC(C)=O)C(=O)NCCC(=O)NCC(=O)NCCC(=O)N[C@@H](Cc1c[nH]cn1)C(=O)N[C@H](Cc1ccccc1)C(=O)N[C@@H](CCCN=C(N)N)C(=O)N[C@@H](Cc1c[nH]c2ccccc12)C(N)=O` showed a Hill coefficient in data set [1] of 1.56. In addition, the binding affinity (radioligand displacement) on Melanocortin receptor 4 (hek293) was found to be 24 nM.
The corresponding values for `CCCC[C@H](NC(C)=O)C(=O)N[C@@H](CCC(=O)O)C(=O)N[C@@H](Cc1cnc[nH]1)C(=O)N[C@H](Cc1ccccc1)C(=O)N[C@@H](CCCNC(=N)N)C(=O)N[C@@H](Cc1c[nH]c2ccccc12)C(=O)NCCCOCCOCCOCCCNC(=O)CCC(=O)NCCCOCCOCCOCCCNC(=O)CCC(=O)N[C@@H](CCCC)C(=O)N[C@@H](CCC(=O)O)C(=O)N[C@@H](Cc1cnc[nH]1)C(=O)N[C@H](Cc1ccccc1)C(=O)N[C@@H](CCCNC(=N)N)C(=O)N[C@@H](Cc1c[nH]c2ccccc12)C(N)=O` are 0.97 and 122 nM.
The corresponding values for `CC(=O)N[C@@H](Cc1c[nH]cn1)C(=O)N[C@H](Cc1ccccc1)C(=O)N[C@@H](CCCN=C(N)N)C(=O)N[C@@H](Cc1c[nH]c2ccccc12)C(=O)NCCCC[C@H](NC(=O)CCNC(=O)[C@H](Cc1c[nH]c2ccccc12)NC(=O)[C@H](CCCN=C(N)N)NC(=O)[C@@H](Cc1ccccc1)NC(=O)[C@H](Cc1c[nH]cn1)NC(C)=O)C(=O)NCCC(=O)N[C@@H](Cc1c[nH]cn1)C(=O)N[C@H](Cc1ccccc1)C(=O)N[C@@H](CCCN=C(N)N)C(=O)N[C@@H](Cc1c[nH]c2ccccc12)C(N)=O` are 1.13 and 15 nM.
In the case of `CC(=O)N[C@@H](Cc1c[nH]cn1)C(=O)N[C@H](Cc1ccccc1)C(=O)N[C@@H](CCCN=C(N)N)C(=O)N[C@@H](Cc1c[nH]c2ccccc12)C(=O)NCCCOCCOCCOCCCNC(=O)CCC(=O)N[C@@H](Cc1c[nH]cn1)C(=O)N[C@H](Cc1ccccc1)C(=O)N[C@@H](CCCN=C(N)N)C(=O)N[C@@H](Cc1c[nH]c2ccccc12)C(N)=O`, the Hill coefficient in data set [1] is on record as 1.83. Moreover, the binding affinity (radioligand displacement) on Melanocortin receptor 4 (hek293) is 662 nM.
`CCCC[C@H](NC(C)=O)C(=O)N[C@@H](CCC(=O)O)C(=O)N[C@@H](Cc1c[nH]cn1)C(=O)N[C@H](Cc1ccccc1)C(=O)N[C@@H](CCCN=C(N)N)C(=O)N[C@@H](Cc1c[nH]c2ccccc12)C(=O)NCCCOCCOCCOCCCNC(=O)CCC(=O)N[C@@H](CCCC)C(=O)N[C@@H](CCC(=O)O)C(=O)N[C@@H](Cc1c[nH]cn1)C(=O)N[C@H](Cc1ccccc1)C(=O)N[C@@H](CCCN=C(N)N)C(=O)N[C@@H](Cc1c[nH]c2ccccc12)C(N)=O`: the Hill coefficient in data set [1] turned out to be 1.59. Moreover, the binding affinity (radioligand displacement) on Melanocortin receptor 4 (hek293) worked out at 33 nM.
